Measured values as given in PubChem BioAssay (NCI).
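Assay format: 96-well plates, 48-hour exposure. GI50 is the concentration that inhibits growth by half. Definition used: TGI = concentration required for complete inhibition of growth.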 Where a SMILES comes first, the peptide text is derived from it. Bridges are numbered along the chain shown (N, C = ends). [ ]: non-standard residue; d: D form. The star is where a group is joined. Cbz = O=C(OCc1ccccc1)*; Dab = NCC[CH](N)C(=O)O; Bn = c1ccc(C*)cc1

How the values were obtained:
Experiment in all cases: NCI anticancer screen, dose series, 48 h
[1] = system: NCI-H23 lung
[2] = system: HOP-92 NSCLC
[3] = system: UACC-257 melanoma
[4] = system: NCI-H226 lung
[5] = system: LOX IMVI melanoma
[6] = system: DU-145 prostate
[7] = system: NCI-H522 lung
[8] = system: SN12C renal
[9] = system: K-562 leukemia
[10] = system: HCT-116 colon
[11] = system: PC-3 prostate
[12] = system: MOLT-4 leukemia
[13] = system: UACC-62 melanoma
[14] = system: HL-60(TB) leukemia
[15] = system: IGROV1 ovarian
[16] = system: NCI/ADR-RES ovarian
[17] = system: EKVX NSCLC
[18] = system: KM12 colon
[19] = system: HCC-2998 colon
[20] = system: A549 NSCLC
[21] = system: SR leukemia
[22] = system: HCT-15 colon
[23] = system: SW-620 colon
[24] = system: SK-MEL-2 melanoma
[25] = system: CAKI-1 renal
[26] = system: MDA-MB-231 breast
[27] = system: TK-10 renal
[28] = system: OVCAR-8 ovarian
[29] = system: OVCAR-3 ovarian
[30] = system: HOP-62 NSCLC
[31] = system: MDA-MB-435
[32] = system: U251 CNS
[33] = system: ACHN renal
[34] = system: SF-295 CNS
[35] = system: OVCAR-4 ovarian
[36] = system: CCRF-CEM leukemia
[37] = system: SF-268 CNS
[38] = system: OVCAR-5 ovarian
[39] = system: 786-0 renal
[40] = system: SK-MEL-5 melanoma
[41] = system: BT-549 breast
[42] = system: NCI-H460 lung
[43] = system: M14 melanoma
[44] = system: RXF 393 renal
[45] = system: SK-MEL-28 melanoma
[46] = system: HT29 colon
[47] = system: MALME-3M melanoma
[48] = system: SNB-19 CNS
[49] = system: SF-539 CNS
[50] = system: HS 578T breast
[51] = system: SNB-75 CNS
[52] = system: MCF7 breast
[53] = system: COLO 205 colon
[54] = system: RPMI-8226 leukemia
[55] = system: A498 renal
[56] = system: UO-31 renal
[57] = system: SK-OV-3 ovarian

With `CC(C)CC1NC(=O)C(Cc2ccccc2)NC(=O)C(Cc2ccccc2)NC(=O)C(NC(=O)C(Cc2ccc(OCc3ccccc3)cc2)NC(=O)OCc2ccccc2)CCNC1=O` (stereo not drawn) (Cbz-Y(Bn)[Dab]FFL; lactam 2-C; configuration not given here) the TGI [1] was greater than 100 µM, the TGI [2] was greater than 100 µM and the TGI [3] was 84.7 µM. For the same compound, the TGI [4] was greater than 100 µM.

`O=Cc1ccc(-c2ccc(-c3nc4ccccc4[nH]3)cc2)s1` gave a GI50 [5] of 21.8 µM, a TGI [5] of 64.6 µM and a GI50 [6] of 25.8 µM. The TGI [6] was greater than 100 µM, the GI50 [7] was 26.3 µM and the TGI [7] was greater than 100 µM. It also gave a GI50 [8] of 31.6 µM, a TGI [8] of 92.2 µM and a GI50 [9] of 17.7 µM. For the same compound, the TGI [9] was 53 µM, the GI50 [10] was 18.4 µM and the TGI [10] was 39 µM. It also gave a GI50 [11] of 18.2 µM, a TGI [11] of 40.3 µM and a GI50 [12] of 32.4 µM. For the same compound, the TGI [12] was greater than 100 µM, the GI50 [13] was 22.1 µM and the TGI [13] was 52.9 µM. The GI50 [14] was 47.1 µM, the TGI [14] was greater than 100 µM and the GI50 [15] was 34.8 µM. For the same compound, the TGI [15] was greater than 100 µM, the GI50 [1] was 17.2 µM and the TGI [1] was 35 µM. The GI50 [16] was 21.1 µM, the TGI [16] was 50.9 µM and the GI50 [17] was 24 µM. The TGI [17] was 87 µM, the GI50 [18] was 22.8 µM and the TGI [18] was 69 µM. It also gave a GI50 [19] of 29.3 µM, a TGI [19] of 81.3 µM and a GI50 [20] of 40.4 µM. The TGI [20] was greater than 100 µM, the GI50 [21] was 15.6 µM and the TGI [21] was 98.7 µM. For the same compound, the GI50 [22] was 19.1 µM, the TGI [22] was 53.3 µM and the GI50 [23] was 59.4 µM. It also gave a TGI [23] greater than 100 µM, a GI50 [24] of 42 µM and a TGI [24] greater than 100 µM. For the same compound, the GI50 [2] was 0.152 µM, the TGI [2] was 28.1 µM and the GI50 [25] was 29.9 µM. It also gave a TGI [25] of 57.2 µM, a GI50 [26] of 45.8 µM and a TGI [26] greater than 100 µM. It also gave a GI50 [27] of 23.5 µM, a TGI [27] of 69.1 µM and a GI50 [28] of 26.2 µM. For the same compound, the TGI [28] was 87.5 µM, the GI50 [29] was 20.9 µM and the TGI [29] was 54.1 µM. The GI50 [3] was 45.4 µM, the TGI [3] was greater than 100 µM and the GI50 [30] was 16.1 µM. For the same compound, the TGI [30] was 41.1 µM, the GI50 [31] was 26.4 µM and the TGI [31] was 69.2 µM. For the same compound, the GI50 [32] was 26.7 µM, the TGI [32] was greater than 100 µM and the GI50 [33] was 24.4 µM. The TGI [33] was 67.1 µM, the GI50 [34] was 18.6 µM and the TGI [34] was 55.5 µM. For the same compound, the GI50 [35] was 33.8 µM, the TGI [35] was 96.1 µM and the GI50 [36] was 14 µM. The TGI [36] was 38.9 µM, the GI50 [37] was 19.8 µM and the TGI [37] was 48.3 µM. It also gave a GI50 [38] of 37 µM, a TGI [38] greater than 100 µM and a GI50 [39] of 19 µM. For the same compound, the TGI [39] was 62.2 µM, the GI50 [40] was 20.3 µM and the TGI [40] was 41.9 µM. For the same compound, the GI50 [41] was 15.6 µM, the TGI [41] was 52.4 µM and the GI50 [42] was 13.1 µM. It also gave a TGI [42] of 29.7 µM, a GI50 [4] of 27.3 µM and a TGI [4] of 82.3 µM. It also gave a GI50 [43] of 18.2 µM, a TGI [43] of 43.2 µM and a GI50 [44] of 22.7 µM. For the same compound, the TGI [44] was 57.8 µM, the GI50 [45] was 47.7 µM and the TGI [45] was greater than 100 µM. It also gave a GI50 [46] of 38.9 µM and a TGI [46] greater than 100 µM.

`O=Nc1ccc(O)c2ccccc12` gave a GI50 [47] of 1.61 µM, a TGI [47] of 3.62 µM and a GI50 [5] of 0.668 µM. The TGI [5] was 2.28 µM, the GI50 [6] was 1.77 µM and the TGI [6] was 3.22 µM. It also gave a GI50 [7] of 1.6 µM, a TGI [7] of 3.48 µM and a GI50 [8] of 1.38 µM. It also gave a TGI [8] of 3.22 µM, a GI50 [48] of 2.31 µM and a TGI [48] of 6.65 µM. It also gave a GI50 [10] of 1.17 µM, a TGI [10] of 2.46 µM and a GI50 [11] of 1.88 µM. For the same compound, the TGI [11] was 6.99 µM, the GI50 [49] was 2.11 µM and the TGI [49] was 4.05 µM. It also gave a GI50 [13] of 1.69 µM, a TGI [13] of 3.37 µM and a GI50 [15] of 1.51 µM. For the same compound, the TGI [15] was 3.29 µM, the GI50 [1] was 1.45 µM and the TGI [1] was 4.17 µM. The GI50 [16] was 1.11 µM, the TGI [16] was 6.61 µM and the GI50 [17] was 1.88 µM. For the same compound, the TGI [17] was 4.43 µM, the GI50 [18] was 2.17 µM and the TGI [18] was 6.02 µM. For the same compound, the GI50 [19] was 3.31 µM, the TGI [19] was 11.3 µM and the GI50 [20] was 2.14 µM. It also gave a TGI [20] of 4.79 µM, a GI50 [50] of 0.868 µM and a TGI [50] of 4.18 µM. The GI50 [22] was 2.14 µM, the TGI [22] was 4.98 µM and the GI50 [23] was 1.82 µM. For the same compound, the TGI [23] was 3.6 µM, the GI50 [24] was 1.7 µM and the TGI [24] was 3.72 µM. It also gave a GI50 [2] of 3.31 µM, a TGI [2] of 9.01 µM and a GI50 [51] of 1.44 µM. The TGI [51] was 3.02 µM, the GI50 [25] was 1.63 µM and the TGI [25] was 4.03 µM. For the same compound, the GI50 [26] was 2.93 µM, the TGI [26] was 20.4 µM and the GI50 [27] was 2.24 µM. It also gave a TGI [27] of 4.66 µM, a GI50 [28] of 1.57 µM and a TGI [28] of 5 µM. It also gave a GI50 [29] of 0.25 µM, a TGI [29] of 0.643 µM and a GI50 [3] of 1.63 µM. The TGI [3] was 3.23 µM, the GI50 [31] was 0.33 µM and the TGI [31] was 1.1 µM. The GI50 [32] was 1.65 µM, the TGI [32] was 3.17 µM and the GI50 [33] was 1.69 µM. For the same compound, the TGI [33] was 3.14 µM, the GI50 [34] was 2.04 µM and the TGI [34] was 4.55 µM. The GI50 [52] was 1.81 µM, the TGI [52] was 4.31 µM and the GI50 [53] was 1.93 µM. The TGI [53] was 3.92 µM, the GI50 [35] was 1.17 µM and the TGI [35] was 2.44 µM. The GI50 [54] was 2.4 µM, the TGI [54] was 7.58 µM and the GI50 [37] was 2.29 µM. It also gave a TGI [37] of 5.87 µM, a GI50 [38] of 2.13 µM and a TGI [38] of 4.21 µM. It also gave a GI50 [39] of 4.1 µM, a TGI [39] of 12.6 µM and a GI50 [40] of 1.65 µM. The TGI [40] was 3.04 µM, the GI50 [55] was 15.1 µM and the TGI [55] was 28.6 µM. It also gave a GI50 [41] of 1.93 µM, a TGI [41] of 3.35 µM and a GI50 [42] of 3.66 µM. For the same compound, the TGI [42] was 13.5 µM, the GI50 [4] was 2.02 µM and the TGI [4] was 4.3 µM. The GI50 [43] was 1.83 µM, the TGI [43] was 3.41 µM and the GI50 [44] was 2.86 µM. It also gave a TGI [44] of 8.24 µM, a GI50 [45] of 2.59 µM and a TGI [45] of 6.12 µM. The GI50 [46] was 1.86 µM, the TGI [46] was 5.71 µM and the GI50 [56] was 1.36 µM. It also gave a TGI [56] of 3.37 µM, a GI50 [57] of 4.93 µM and a TGI [57] of 16.3 µM.
